pIC50: −log10 of the molar value. Read-outs that look alike come from different tables or passages of the source. Numbered stars: 1 amine (or outer) side, 2 acyl side, 3 side chain; on linkers, the order of the positions; unused ones are H or OH. Square brackets hold non-standard residues; d marks the D form. Peptide text beside a SMILES is read from it. * marks the point of attachment. Dab(3S-OH) = NC[C@H](O)[C@H](N)C(=O)O; His(τ-Me) = Cn1cnc(C[C@H](N)C(=O)O)c1; His(π-Me) = Cn1cncc1C[C@H](N)C(=O)O; 2Pal = N[C@@H](Cc1ccccn1)C(=O)O; ΔZArg = N=C(N)NCC/C=C(\N)C(=O)O; NMeK = CN[C@@H](CCCCN)C(=O)O; X2 = CC=C(N[*:1])C(=O)[*:2]; dOrn = NCCC[C@@H](N)C(=O)O; hSer = N[C@@H](CCO)C(=O)O; Pra = C#CC[C@H](N)C(=O)O; Dab = NCC[C@H](N)C(=O)O; NH(CH2)4NH2 = NCCCCN*
What was measured:
[1] = system: Staphylococcus aureus ATCC 13709; assay: MIC, broth microdilution (CLSI), reference strain; conditions: CAMHB
[2] = biological target: N-type calcium channels (Cav2.2) (Rattus norvegicus (Rat), UniProt Q02294); assay: biochemical; format: binding
[3] = system: Escherichia coli ATCC 25922; assay: MIC, broth microdilution (CLSI), reference strain; conditions: CAMHB
[4] = system: Acinetobacter baumannii ATCC 19606; assay: MIC, broth microdilution (CLSI), reference strain; conditions: CAMHB
[5] = system: Pseudomonas aeruginosa ATCC 27853; assay: MIC, broth microdilution (CLSI), reference strain; conditions: CAMHB
[6] = class symbol, rat cerebral cortex, [125I]ω-conotoxin GVIA 0.001 nM, 30 minutes at room temperature, read-out: IC50 Cav2.2
[7] = value in brackets, rat cerebral cortex, [125I]ω-conotoxin GVIA 0.001 nM, read-out: IC50 Cav2.2

| Compound | Sa: MIC Staphylococcus aureus ATCC 13709 [1] | pIC50 [2, 6] | Ec: MIC Escherichia coli ATCC 25922 [3] | Ab: MIC Acinetobacter baumannii ATCC 19606 [4] | Pa: MIC Pseudomonas aeruginosa ATCC 27853 [5] | pIC50 [2] | pIC50 [2, 7] |
| --- | --- | --- | --- | --- | --- | --- | --- |
| N=C(N)NCC/C=C(\NC(=O)[C@H](CCCCN)NC(=O)[C@H](Cc1cnc[nH]1)NC(=O)[C@@H]1CCCN1C(=O)[C@@H](CCCN)NC(=O)CNC(=O)[C@H](CCN)NC(=O)[C@@H](NC(=O)[C@@H](N)CCCCN)[C@@H](O)CN)C(=O)N[C@@H](CCCCN)C(=O)NCCCCN [21.1] (H-K[Dab(3S-OH)][Dab]G[dOrn]PHK[ΔZArg]K-{NH(CH2)4NH2}) | ++ (≤8 μg/mL) | > 7.52 | ++ (≤8 μg/mL) | ++ (≤8 μg/mL) | ++ (≤8 μg/mL) |  |  |
| CN[C@@H](CCCCN)C(=O)N[C@H](C(=O)N[C@H](C(=O)NCC(=O)N[C@H](CCCN)C(=O)N1CCC[C@H]1C(=O)N[C@@H](Cc1cnc[nH]1)C(=O)N[C@@H](CCCCN)C(=O)N/C(=C\CCNC(=N)N)C(=O)N[C@@H](CCCCN)C(=O)NCCCCN)[C@@H](O)CN)[C@@H](O)CN [22.3] (H-[NMeK][Dab(3S-OH)][Dab(3S-OH)]G[dOrn]PHK[ΔZArg]K-{NH(CH2)4NH2}) | ++ (≤8 μg/mL) | > 7.52 | ++ (≤8 μg/mL) | + (≤32 μg/mL) | + (≤32 μg/mL) |  |  |
| C[C@H](NC(=O)[C@@H]1CCCN1C(=O)[C@@H](CCCN)NC(=O)CNC(=O)[C@@H](NC(=O)[C@@H](NC(=O)[C@@H](N)CCCCN)[C@@H](O)CN)[C@@H](O)CN)C(=O)N[C@@H](CCCCN)C(=O)N/C(=C\CCNC(=N)N)C(=O)N[C@@H](CCCCN)C(=O)NCCCCN [22.4] (H-K[Dab(3S-OH)][Dab(3S-OH)]G[dOrn]PAK[ΔZArg]K-{NH(CH2)4NH2}) | ++ (≤8 μg/mL) | > 7.52 | ++ (≤8 μg/mL) | − (>32 μg/mL) | + (≤32 μg/mL) |  |  |
| N=C(N)NCCC[C@@H](NC(=O)[C@H](CCCCN)NC(=O)[C@H](Cc1cnc[nH]1)NC(=O)[C@@H]1CCCN1C(=O)[C@@H](CCCN)NC(=O)CNC(=O)[C@@H](NC(=O)[C@@H](NC(=O)[C@@H](N)CCCCN)[C@@H](O)CN)[C@@H](O)CN)C(=O)N[C@@H](CCCCN)C(=O)NCCCCN [22.5] (H-K[Dab(3S-OH)][Dab(3S-OH)]G[dOrn]PHK[dR]K-{NH(CH2)4NH2}) | ++ (≤8 μg/mL) | > 7.52 | + (≤32 μg/mL) | − (>32 μg/mL) | + (≤32 μg/mL) |  |  |
| CC=C(NC(=O)[C@H](CCCCN)NC(=O)[C@H](Cc1cnc[nH]1)NC(=O)[C@@H]1CCCN1C(=O)[C@@H](CCCN)NC(=O)CNC(=O)[C@@H](NC(=O)[C@@H](NC(=O)[C@@H](N)CCCCN)[C@@H](O)CN)[C@@H](O)CN)C(=O)N[C@@H](CCCCN)C(=O)NCCCCN [22.15] (H-K[Dab(3S-OH)][Dab(3S-OH)]G[dOrn]PHK[X2]K-{NH(CH2)4NH2}) | ++ (≤8 μg/mL) |  | + (≤32 μg/mL) | − (>32 μg/mL) | − (>32 μg/mL) | > 7.52 | 8.40 |
| C[C@H](N)C(=O)N[C@H](C(=O)N[C@H](C(=O)NCC(=O)N[C@H](CCCN)C(=O)N1CCC[C@H]1C(=O)N[C@@H](Cc1cnc[nH]1)C(=O)N[C@@H](CCCCN)C(=O)N/C(=C\CCNC(=N)N)C(=O)N[C@@H](CCCCN)C(=O)NCCCCN)[C@@H](O)CN)[C@@H](O)CN [22.16] (H-A[Dab(3S-OH)][Dab(3S-OH)]G[dOrn]PHK[ΔZArg]K-{NH(CH2)4NH2}) | ++ (≤8 μg/mL) | > 7.52 | + (≤32 μg/mL) | − (>32 μg/mL) | − (>32 μg/mL) |  |  |
| C[C@H](NC(=O)[C@H](CCCCN)NC(=O)[C@H](Cc1cnc[nH]1)NC(=O)[C@@H]1CCCN1C(=O)[C@@H](CCCN)NC(=O)CNC(=O)[C@@H](NC(=O)[C@@H](NC(=O)[C@@H](N)CCCCN)[C@@H](O)CN)[C@@H](O)CN)C(=O)N[C@@H](CCCCN)C(=O)NCCCCN [22.23] (H-K[Dab(3S-OH)][Dab(3S-OH)]G[dOrn]PHKAK-{NH(CH2)4NH2}) | ++ (≤8 μg/mL) | > 7.52 | − (>32 μg/mL) | − (>32 μg/mL) | − (>32 μg/mL) |  |  |
| C[C@H](NC(=O)[C@@H](NC(=O)[C@@H](NC(=O)[C@@H](N)CCCCN)[C@@H](O)CN)[C@@H](O)CN)C(=O)N[C@H](CCCN)C(=O)N1CCC[C@H]1C(=O)N[C@@H](Cc1cnc[nH]1)C(=O)N[C@@H](CCCCN)C(=O)N/C(=C\CCNC(=N)N)C(=O)N[C@@H](CCCCN)C(=O)NCCCCN [22.24] (H-K[Dab(3S-OH)][Dab(3S-OH)]A[dOrn]PHK[ΔZArg]K-{NH(CH2)4NH2}) | ++ (≤8 μg/mL) | > 7.52 | − (>32 μg/mL) | − (>32 μg/mL) | − (>32 μg/mL) |  |  |
| C[C@H](NC(=O)[C@@H](NC(=O)[C@@H](N)CCCCN)[C@@H](O)CN)C(=O)NCC(=O)N[C@H](CCCN)C(=O)N1CCC[C@H]1C(=O)N[C@@H](Cc1cnc[nH]1)C(=O)N[C@@H](CCCCN)C(=O)N/C(=C\CCNC(=N)N)C(=O)N[C@@H](CCCCN)C(=O)NCCCCN [24.1] (H-K[Dab(3S-OH)]AG[dOrn]PHK[ΔZArg]K-{NH(CH2)4NH2}) | ++ (≤8 μg/mL) | > 7.52 | ++ (≤8 μg/mL) | + (≤32 μg/mL) | + (≤32 μg/mL) |  |  |
| C[C@H](NC(=O)[C@@H](NC(=O)[C@@H](N)CCCCN)[C@@H](O)CN)C(=O)NCC(=O)N[C@H](CCCN)C(=O)N1CCC[C@H]1C(=O)N[C@@H](Cc1cncn1C)C(=O)N[C@@H](CCCCN)C(=O)N/C(=C\CCNC(=N)N)C(=O)N[C@@H](CCCCN)C(=O)NCCCCN [24.14] (H-K[Dab(3S-OH)]AG[dOrn]P[His(π-Me)]K[ΔZArg]K-{NH(CH2)4NH2}) | ++ (≤8 μg/mL) | > 7.52 | ++ (≤8 μg/mL) | − (>32 μg/mL) | + (≤32 μg/mL) |  |  |
| C[C@H](NC(=O)[C@@H](NC(=O)[C@@H](N)CCCCN)[C@@H](O)CN)C(=O)NCC(=O)N[C@H](CCCN)C(=O)N1CCC[C@H]1C(=O)N[C@@H](Cc1cn(C)cn1)C(=O)N[C@@H](CCCCN)C(=O)N/C(=C\CCNC(=N)N)C(=O)N[C@@H](CCCCN)C(=O)NCCCCN [24.15] (H-K[Dab(3S-OH)]AG[dOrn]P[His(τ-Me)]K[ΔZArg]K-{NH(CH2)4NH2}) | ++ (≤8 μg/mL) | > 7.52 | ++ (≤8 μg/mL) | − (>32 μg/mL) | + (≤32 μg/mL) |  |  |
| C[C@H](NC(=O)[C@@H](NC(=O)[C@@H](N)CCCCN)[C@@H](O)CN)C(=O)NCC(=O)N[C@H](CCCN)C(=O)N1CCC[C@H]1C(=O)N[C@@H](Cc1ccccn1)C(=O)N[C@@H](CCCCN)C(=O)N/C(=C\CCNC(=N)N)C(=O)N[C@@H](CCCCN)C(=O)NCCCCN [24.17] (H-K[Dab(3S-OH)]AG[dOrn]P[2Pal]K[ΔZArg]K-{NH(CH2)4NH2}) | ++ (≤8 μg/mL) | > 7.52 | ++ (≤8 μg/mL) | − (>32 μg/mL) | − (>32 μg/mL) |  |  |
| C[C@H](NC(=O)[C@@H](NC(=O)[C@@H](N)CCCCN)[C@@H](O)CN)C(=O)NCC(=O)N[C@H](CCCN)C(=O)N1CCC[C@H]1C(=O)N[C@@H](Cc1ccc(O)cc1)C(=O)N[C@@H](CCCCN)C(=O)N/C(=C\CCNC(=N)N)C(=O)N[C@@H](CCCCN)C(=O)NCCCCN [24.20] (H-K[Dab(3S-OH)]AG[dOrn]PYK[ΔZArg]K-{NH(CH2)4NH2}) | ++ (≤8 μg/mL) | > 7.52 | ++ (≤8 μg/mL) | − (>32 μg/mL) | − (>32 μg/mL) |  |  |
| C#CC[C@H](NC(=O)[C@@H](NC(=O)[C@@H](N)CCCCN)[C@@H](O)CN)C(=O)NCC(=O)N[C@H](CCCN)C(=O)N1CCC[C@H]1C(=O)N[C@@H](Cc1cnc[nH]1)C(=O)N[C@@H](CCCCN)C(=O)N/C(=C\CCNC(=N)N)C(=O)O [223.1] (H-K[Dab(3S-OH)][Pra]G[dOrn]PHK[ΔZArg]-OH) | + (≤32 μg/mL) |  | + (≤32 μg/mL) | − (>32 μg/mL) | − (>32 μg/mL) |  |  |
| N=C(N)NCC/C=C(\NC(=O)[C@H](CCCCN)NC(=O)[C@H](Cc1c[nH]cn1)NC(=O)[C@@H]1CCCN1C(=O)[C@@H](CCCN)NC(=O)CNC(=O)[C@H](CCO)NC(=O)[C@@H](NC(=O)[C@@H](N)CCCCN)[C@@H](O)CN)C(=O)O [225.1] (H-K[Dab(3S-OH)][hSer]G[dOrn]PHK[ΔZArg]-OH) | + (≤32 μg/mL) |  | − (>32 μg/mL) | − (>32 μg/mL) | − (>32 μg/mL) |  |  |
| N=C(N)NCC/C=C(\NC(=O)[C@H](CCCCN)NC(=O)[C@H](Cc1c[nH]cn1)NC(=O)[C@@H]1CCCN1C(=O)[C@@H](CCCN)NC(=O)CNC(=O)[C@@H](NC(=O)[C@@H](NC(=O)[C@@H](N)CCCCN)[C@@H](O)CN)[C@@H](O)CN)C(=O)N[C@@H](CCCCN)C(=O)NCCCCN [Odilomycin C, reference compound] (H-K[Dab(3S-OH)][Dab(3S-OH)]G[dOrn]PHK[ΔZArg]K-{NH(CH2)4NH2}; N-terminus and C-terminus assumed) |  | > 7.52 |  |  |  |  | 8.05 |

From patent publication US10626144B2, “Peptide derivatives and uses thereof” (Nosopharm, priority 2014, dated 2020)
